# Assay results taken from article PMC2775485 (Journal of medicinal chemistry, 2009).
# B1: hASIP: Endogenous antagonist of the hMCRs, agouti signaling protein (protein, UniProt P42127 23-132, looked up)
# Agouti-signaling protein: HLPPEEKLRDDRSLRSNSSVNLLDVPSVSIVALNKKSKQIGRKAAEKKRSSKKEASMKKVVRPRTPLSAPCVATRNSCKPPAPACCDPCASCQCRFFRSACSCRVLSLNC
# Legend:
# hMC1R [1] = molecular target: T1, hMC1R (Homo sapiens, UniProt Q01726); assay: Adenylate cyclase; assay type: cell-based; conditions: for functional class at hMC1R: class by maximal cAMP level relative to MTII; for fold drop in potency: hMC1R, Ac-NDP-γ-MSH-NH2 series, comparator implied: peptide 11
# hMC3R = hMC3R (Homo sapiens, UniProt P41968); assay: Competition binding on whole HEK293 cells, 125I-[Nle4,DPhe7]-α-MSH; conditions: concentration of peptide at 50% specific binding, N=4; NB: No Binding at 10^-5 M
# hMC4R [2] = molecular target: T2, hMC4R (Homo sapiens, UniProt P32245); assay: as above; conditions: for hMC4R IC50 / IC50: concentration of peptide at 50% specific binding, N=4, NB: No Binding at 10^-5 M; for IC50: read-out: hMC4R IC50
# hMC4R [3] = molecular target: T2, hMC4R; assay: Adenylate cyclase; assay type: cell-based; conditions: class by maximal cAMP level relative to MTII
# hMC1R [4] = molecular target: T1, hMC1R; assay: Competition binding on whole HEK293 cells, 125I-[Nle4,DPhe7]-α-MSH; conditions: Ac-NDP-γ-MSH-NH2 series, comparator implied: peptide 11
# [5] = molecular target: human melanocortin 1 receptor (human) (UniProt Q01726)
# [6] = molecular target: human melanocortin 3 receptor (human) (UniProt P41968)
# [7] = molecular target: human melanocortin 4 receptor (human) (UniProt P32245)
# [8] = molecular target: human melanocortin 5 receptor (human) (UniProt P33032)
# [9] = molecular target: human melanocortin 1 receptor (human) (UniProt Q01726); assay: radioligand binding
# hMC4R [10] = molecular target: T2, hMC4R; conditions: cited from earlier work
# T2 sequence (P32245 whole entry): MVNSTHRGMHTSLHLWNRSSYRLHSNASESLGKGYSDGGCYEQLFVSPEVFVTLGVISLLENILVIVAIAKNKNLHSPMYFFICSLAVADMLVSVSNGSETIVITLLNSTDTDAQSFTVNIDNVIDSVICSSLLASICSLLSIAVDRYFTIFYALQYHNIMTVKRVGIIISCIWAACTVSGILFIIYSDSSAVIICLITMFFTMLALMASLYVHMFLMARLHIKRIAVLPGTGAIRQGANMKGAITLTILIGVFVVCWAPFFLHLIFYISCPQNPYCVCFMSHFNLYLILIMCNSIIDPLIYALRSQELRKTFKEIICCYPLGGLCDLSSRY
# T1 sequence (Q01726 whole entry): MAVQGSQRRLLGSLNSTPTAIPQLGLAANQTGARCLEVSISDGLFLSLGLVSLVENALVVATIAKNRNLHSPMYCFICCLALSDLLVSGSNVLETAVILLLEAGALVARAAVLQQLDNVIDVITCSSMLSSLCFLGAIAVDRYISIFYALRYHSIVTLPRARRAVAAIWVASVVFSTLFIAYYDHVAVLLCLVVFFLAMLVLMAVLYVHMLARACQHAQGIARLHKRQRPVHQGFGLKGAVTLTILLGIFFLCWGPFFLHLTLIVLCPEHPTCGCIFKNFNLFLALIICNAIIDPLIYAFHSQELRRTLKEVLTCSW
# Chain of human melanocortin 1 receptor (human) (Q01726 whole entry): as above
# Chain of human melanocortin 5 receptor (human) (P33032 whole entry): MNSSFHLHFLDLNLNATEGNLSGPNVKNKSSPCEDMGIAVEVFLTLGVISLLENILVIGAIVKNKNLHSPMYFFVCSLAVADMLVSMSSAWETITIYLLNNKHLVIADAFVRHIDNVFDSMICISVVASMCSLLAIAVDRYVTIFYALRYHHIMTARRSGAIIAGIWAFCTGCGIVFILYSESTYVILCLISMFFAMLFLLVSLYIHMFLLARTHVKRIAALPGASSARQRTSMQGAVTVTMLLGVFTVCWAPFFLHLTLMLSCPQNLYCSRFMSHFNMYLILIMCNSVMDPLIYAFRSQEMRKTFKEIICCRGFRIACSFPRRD
# Chain of hMC3R (P41968 whole entry): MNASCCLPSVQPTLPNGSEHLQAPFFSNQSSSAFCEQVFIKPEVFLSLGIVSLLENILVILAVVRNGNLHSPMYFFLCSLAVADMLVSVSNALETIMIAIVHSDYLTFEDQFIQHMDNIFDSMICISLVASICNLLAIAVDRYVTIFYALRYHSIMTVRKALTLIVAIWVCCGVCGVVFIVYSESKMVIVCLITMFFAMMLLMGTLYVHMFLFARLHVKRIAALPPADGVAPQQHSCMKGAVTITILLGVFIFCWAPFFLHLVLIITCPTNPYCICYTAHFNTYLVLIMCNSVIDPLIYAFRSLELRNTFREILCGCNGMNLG
# Chain of human melanocortin 3 receptor (human) (P41968 whole entry): as above
# Chain of human melanocortin 4 receptor (human) (P32245 whole entry): as the sequence (P32245 whole entry) above
molecule,measurement,setting,value
CCCC[C@H](NC(C)=O)C(=O)N[C@H]1CC(=O)NCCCC[C@@H](C(N)=O)NC(=O)[C@H](Cc2c[nH]c3ccccc23)NC(=O)[C@@H]2CCCN2C(=O)[C@@H](Cc2ccccc2)NC(=O)[C@H](Cc2c[nH]cn2)NC1=O [Peptide 1],functional class at hMC1R,hMC1R [1],partial agonist (triggers a maximal cAMP level that is 20%-80% of MTII triggered maximal cAMP response)
CCCC[C@H](NC(C)=O)C(=O)N[C@H]1CC(=O)NCCCC[C@@H](C(N)=O)NC(=O)[C@H](Cc2c[nH]c3ccccc23)NC(=O)[C@H](CCCNC(=N)N)NC(=O)[C@@H](Cc2ccccc2)NC(=O)[C@@H]2C[C@@H](NC(=N)N)CN2C1=O [Peptide 4],hMC3R IC50,hMC3R,single-digit nanomolar range
same,hMC4R IC50,hMC4R [2],single-digit nanomolar range
CCCC[C@H](NC(C)=O)C(=O)N[C@H]1CC(=O)NCCCC[C@@H](C(N)=O)NC(=O)[C@H](Cc2c[nH]c3ccccc23)NC(=O)[C@H](CCCNC(=N)N)NC(=O)[C@@H](Cc2ccccc2)NC(=O)[C@@H]2C[C@H](NC(=N)N)CN2C1=O [Peptide 5],hMC3R IC50,hMC3R,single-digit nanomolar range
same,hMC4R IC50,hMC4R [2],single-digit nanomolar range
CCCC[C@H](NC(C)=O)C(=O)N[C@H]1CC(=O)NCCCC[C@@H](C(N)=O)NC(=O)[C@H](Cc2c[nH]c3ccccc23)NC(=O)[C@@H]2CCCN2C(=O)[C@@H](Cc2ccc3ccccc3c2)NC(=O)[C@H](Cc2c[nH]cn2)NC1=O [Peptide 6],functional class at hMC1R,hMC1R [1],partial agonist (triggers a maximal cAMP level that is 20%-80% of MTII triggered maximal cAMP response)
CCCC[C@H](NC(C)=O)C(=O)N[C@H]1CC(=O)NCCCC[C@@H](C(N)=O)NC(=O)[C@H](Cc2c[nH]c3ccccc23)NC(=O)[C@@H]2C[C@H](NC(=N)N)CN2C(=O)[C@@H](Cc2ccc3ccccc3c2)NC(=O)[C@H](Cc2c[nH]cn2)NC1=O [Peptide 8],functional class at hMC1R,hMC1R [1],full agonist (80%-100% level of MT II)
CCCC[C@H](NC(=O)[C@@H](NC(=O)[C@H](Cc1ccc(O)cc1)NC(C)=O)C(C)C)C(=O)NCC(=O)N[C@@H](Cc1c[nH]cn1)C(=O)N[C@H](Cc1ccccc1)C(=O)N1CCC[C@H]1C(=O)N[C@@H](Cc1c[nH]c2ccccc12)C(=O)N[C@@H](CC(=O)O)C(=O)N[C@@H](CCCNC(=N)N)C(=O)N[C@@H](Cc1ccccc1)C(=O)NCC(N)=O [Peptide 11],"binding affinity at the hMC4R, fold lower/weaker than peptide 1",hMC4R [2]; relative to control peptide 1,25 fold
same,"binding affinity at the hMC4R, fold lower than peptide 6",hMC4R [2]; relative to peptide 6,8 fold
same,functional class at hMC1R,hMC1R [1],partial agonist (triggers a maximal cAMP level that is 20%-80% of MTII triggered maximal cAMP response)
same,functional class at hMC4R,hMC4R [3],partial agonist (triggers a maximal cAMP level that is 20%-80% of MTII triggered maximal cAMP response)
CCCC[C@H](NC(=O)[C@@H](NC(=O)[C@H](Cc1ccc(O)cc1)NC(C)=O)C(C)C)C(=O)NCC(=O)N[C@@H](Cc1cnc[nH]1)C(=O)N[C@H](Cc1ccccc1)C(=O)N1C[C@H](NC(=N)N)C[C@H]1C(=O)N[C@@H](Cc1c[nH]c2ccccc12)C(=O)N[C@@H](CC(=O)O)C(=O)N[C@@H](CCCNC(=N)N)C(=O)N[C@@H](Cc1ccccc1)C(=O)NCC(N)=O [Peptide 12],fold drop in binding affinity,hMC1R [4],4-5 fold
same,IC50,hMC4R [2],> 10000 nM
same,functional class at hMC1R,hMC1R [1],full agonist (80%-100% level of MT II)
same,fold drop in potency,hMC1R [1],more than 11 fold
CCCC[C@H](NC(=O)[C@@H](NC(=O)[C@H](Cc1ccc(O)cc1)NC(C)=O)C(C)C)C(=O)NCC(=O)N[C@@H](Cc1cnc[nH]1)C(=O)N[C@H](Cc1ccccc1)C(=O)N1C[C@@H](NC(=N)N)C[C@H]1C(=O)N[C@@H](Cc1c[nH]c2ccccc12)C(=O)N[C@@H](CC(=O)O)C(=O)N[C@@H](CCCNC(=N)N)C(=O)N[C@@H](Cc1ccccc1)C(=O)NCC(N)=O [Peptide 13],fold drop in binding affinity,hMC1R [4],4-5 fold
same,IC50,hMC4R [2],> 10000 nM
same,functional class at hMC1R,hMC1R [1],full agonist (80%-100% level of MT II)
same,fold drop in potency,hMC1R [1],more than 11 fold
peptide 1 (MTII with Arg8 replaced by Pro),"cAMP accumulation in receptor-transfected HEK293 cells, EC50",[5],> 1000 nM
same,"cAMP accumulation, %max of MTII",[5],75%
peptide 9 (SHU9119 with His6 replaced by 4-guanidinyl-Pro),"cAMP accumulation in receptor-transfected HEK293 cells, EC50",[5],620 nM
same,"cAMP accumulation, %max of MTII",[5],25%
same,"cAMP accumulation in receptor-transfected HEK293 cells, EC50",[6],130 nM
peptide 10 (SHU9119 with His6 replaced by 4-guanidinyl-Pro),"cAMP accumulation in receptor-transfected HEK293 cells, EC50",[5],1700 nM
same,"cAMP accumulation, %max of MTII",[5],90%
same,"cAMP accumulation, %max of MTII (EC50 cell also prints 0)",[6],0%
same,"cAMP accumulation in receptor-transfected HEK293 cells, EC50",[7],1400 nM
same,"cAMP accumulation in receptor-transfected HEK293 cells, EC50",[8],85 nM
same,"cAMP accumulation, %max of MTII",[8],52%
same,IC50,[9],1.2 nM
B1,selectivity hMC4R/hMC3R,hMC4R [10],46 fold
